Reference: patent publication US6753424B1, “Conjugates of DNA interacting groups with steroid hormones for use as nucleic acid transfection agents” (priority 1998, dated 2004)

Legend:
[1] = Stability of C-21 ester versus C-21 urethane derivatives (TLC analysis); assay type: in vitro ADME; conditions: pH 5, pH 9, proteinase K (pH 7.8, 50 μg/ml), dispase (2.4 U/ml), cellular extracts, DMEM/10% FCS
Protocol: b) water buffered to pH 9;
c) water buffered to pH 5;
e) proteinase K (pH 7.8; 50 μg/ml);
After 15 hours of incubation each sample is separately extracted with 400 μl Ethyl acetate, evaporated under N2-flow, redissolved in 20 μl Ethyl acetate and analysed by TLC analysis: stationary phase: Alugram SIL G-25 UV254 (Macherey Nagel AG); mobile phase: Ethyl acetate-MeOH-Acetone (3-1-3).

3Y1 cells = test: Transfection enhancement, CMV-LacZ reporter, CaPO4 transfection of 3Y1 cells; assay type: cell-based, rat; conditions: 5 μg reporter, 3Y1
Protocol: Conditions: 3Y1 cells are transfected with an expression vector that is constitutively expressing the reporter gene LacZ (CMV-LacZ). Transfection conditions are identical throughout the various samples (total 10-12 μq DNA for 4 cm dishes). In some samples the DNA used for the transfection cocktail is pre-incubated with various conjugates at the given concentrations. The concentrations are calculated to give from 10−8 to 10−6 M after dispersing the CaPO4 precipitate in the recipient dish (5 ml volume). Transfection is performed O/N and after rinsing of the precipitate the cells are further incubated for 24 hours. LacZ levels are determined from cell extracts with a chemiluminescence LacZ enzyme assay (Galactolight plus. Tropix). The relative luminescence from each extract is given in RLU/mg*1000.
Cell culture. Cells are cultivated in DMEM supplemented with serum and antibiotica according to standard conditions (typically 10% FCS and Pen/Strep as antibiotica). At the day of transfection, cells are trypsinized and seeded at around 25-30% confluency. Cells are allowed to adhere to dish for 4-6 hours prior to transfection.
DNA pre-incubation (example for conditions that give5×10 exp (−6) Molar final concentration of the CL-C4-EtBr conjugate):
5 microgram of CMV-LacZ DNA (in 10 microliter TE) are mixed with 10 nmoles of hormone derivative (10 microliters stock solution) and incubated for 10 min at room temperature (final volume: 20 ul). The DNA/cortisol-C4-ethidum mix is then supplemented with 7 micrograms sheared calf thymus carrier DNA (in 14 microliters TE) and bidistilled water to give a final volume of 125 microliters.
Transfection by CaPO4: to each transfection sample (125 microliter volume DNA+water). 125 microliters of Ca ++ mix are added, and the mix is incubated for 5-10 min at room temperature. Each sample is then supplemented with 250 microliter of Pi-mix (with simultaneous mixing by up-down pipetting) and is further incubated 10 minutes at room temperature after which the cocktail is poured on top of the medium (5 ml) of each cell culture dish (4 cm diameter). The optimal time of incubation after Pi-mix addition is pre-determined by prior evaluation (size of the precipitate) of parallel samples. The precipitate is allowed to deposit onto the cells for 15 hours (incubation of 37 degrees, 5% CO2). The cells are then rinsed twice with Tris-buffered Saline, supplemented with fresh medium and further incubated under standard conditions. To analyze LacZ reporter gene function, the cells are either fixed or harvested 24 hours after precipitate removal.
Variation of parameters: samples in which the C1-C4-EtBr conjugates (or control compounds) are used at different concentrations, are similarly treated, except that the concentration of the stock solution in ethanol is correspondingly varied.

[2] = tested on: pBR322, linearized with HindIII; test: DNA cross-linking by 365 nm UV irradiation, alkaline gel electrophoresis; assay type: biochemical; conditions: 5 nmoles, 1 microgram DNA, 20 min 365 nm UV
Protocol: DNA: CsCl purified pBR322, linearized with HindIII and resuspended in TE at a concentration of 30 nanogram/microliter hormone derivative: cortisol-C4psoralen resuspended in 100% methanol at a concentration of 10 exp(−3) Molar psoralen (Fluka) resuspended in 100% ethanol at a concentration of 10 exp(−3)Molar.
Irradiation buffer: 50 mM Tris (pH=7.5), 0.1 mM EDTA, 10 mM NaCl, 10 mM MgCl2 crosslinker apparatus: Bio-Link (BLX) equipped with 4 UV lamps (T-8.L, 365 nanometer nominal wave length) 1 microgram of DNA (in 33 microliter) is mixed at room temperature with 5 nmoles cortisol-C4-psoralen or plain psoralen (either in 5 microliter) and 33 microliter irradiation buffer and pipetted into a well (final volume: 71 microliter) The 96× wells plate is then covered by its plastic lid and put on top of an ice-bed in a plastic box inside the crosslinker apparatus. The cooled microwell plate is irradiated for 20 min with 365 nm UV light (corresponds to an approximate value of 16 joules/square cm). The cross-linked products are then precipitated 2 times with ethanol and resuspended in TE. The products are compared to non-irradiated samples by alkaline gel electrophoresis, where cross-linked DNA maintains its double-stranded molecular weight.

GR-GFP chimera = test: Nuclear Transfer Induction assay (NTI), monourethane ligands, HeLa cells; assay type: cell-based; conditions: 1 hr
Protocol: Conditions: HeLa cells are transiently transfected by CaPO4 with an expression vector encoding a GR-GFP chimera (5 μg in transfection cocktail, 4 cm diameter dishes, DMEM with 3% FCS). After 24 hour expression, ligand is added for 1 hr and cells are fixed with formaldehyde (5 min 4° C.) and inspected by fluorescence microscopy. Fluorescent cells are counted and divided into different classes according to ‘cytoplasmic’ (C) versus ‘nuclear’ (N) localisation of fluorescence.
First column: “Conditions”: Name of compounds added (marked at top: ‘//ligand’), and their concentration (in parentheses) and assay number (01 through 21).
Values are given as percentage of cells displaying the corresponding localisatidn, within each tested condition the sum is 100%.

| Compound | stability of urethane bond between steroid moiety, spacer and DNA binder [1] | light units (relative luminescence, LacZ) (3Y1 cells; ligand 10^-6M) | light units (relative luminescence, LacZ) (3Y1 cells; ligand 10^-7M) | light units (relative luminescence, LacZ) (3Y1 cells; ligand 10^-8M) | DNA cross-linking efficiency [2] | C < N, percentage of cells (GR-GFP chimera; ligand 1.10-6M) | C << N, percentage of cells (GR-GFP chimera; ligand 1.10-6M) | C = N, percentage of cells (GR-GFP chimera; ligand 1.10-6M) | C > N, percentage of cells (GR-GFP chimera; ligand 1.10-6M) | C >> N, percentage of cells (GR-GFP chimera; ligand 1.10-6M) | C < N, percentage of cells (GR-GFP chimera; ligand 1.10-7M) | C << N, percentage of cells (GR-GFP chimera; ligand 1.10-7M) | C = N, percentage of cells (GR-GFP chimera; ligand 1.10-7M) | C > N, percentage of cells (GR-GFP chimera; ligand 1.10-7M) | C >> N, percentage of cells (GR-GFP chimera; ligand 1.10-7M) |
| --- | --- | --- | --- | --- | --- | --- | --- | --- | --- | --- | --- | --- | --- | --- | --- |
| Cc1oc2c(C)c3oc(=O)cc(C)c3cc2c1CNC(=O)OCCOCCNC(=O)OCCOCCNC(=O)OCC(=O)[C@@]1(O)[C@H](C)CC2C3CCC4=CC(=O)C=CC4(C)[C@@]3(F)C(O)CC21C (some centres unmarked) [DEX-O-O-PSO] | stable | – | – | – | – | – | – | – | – | – | – | – | – | – | – |
| COC(=O)CCNC(=O)OCC(=O)[C@@]1(O)CCC2C3CCC4=CC(=O)CCC4(C)C3C(O)CC21C (some centres unmarked) [CL-C4] | – | 3750 RLU/mg*1000 | 1625 RLU/mg*1000 | 2500 RLU/mg*1000 | – | – | – | – | – | – | – | – | – | – | – |
| Cc1oc2c(C)c3oc(=O)cc(C)c3cc2c1CNC(=O)CCNC(=O)OCC(=O)[C@@]1(O)CCC2C3CCC4=CC(=O)CCC4(C)C3C(O)CC21C (some centres unmarked) [CL-C4-Pso] | – | – | – | – | as efficient as cross-linking with free psoralen | 63% | 8% | 29% | 0% | 0% | 5% | 0% | 75% | 20% | 0% |
| Cc1oc2c(C)c3oc(=O)cc(C)c3cc2c1CNC(=O)CCNC(=O)OCC(=O)[C@@]1(O)[C@H](C)CC2C3CCC4=CC(=O)C=CC4(C)[C@@]3(F)C(O)CC21C (some centres unmarked) [DEX-C4-Pso] | stable | – | – | – | – | 15% | 5% | 60% | 20% | 0% | 5% | 0% | 40% | 35% | 20% |
